Measurements: patent publication US12053451B2, “Arginase inhibitors and their therapeutic applications” (OncoArendi Therapeutics S.A., priority 2016, dated 2024)
Counter-ions that a name gives are not always drawn.

Columns and labels:
[1] = molecular target: T1, recombinant human arginase 1 (Homo sapiens, UniProt P05089); assay: Human arginase activity assay (urea measurement), arginase 1; type: biochemical; settings: recombinant human arginase 1, pH 7.4, 37° C., 60 min; * = value for the most potent diastereoisomer or the mixture of diastereoisomers; read-out: Activity Class (ARG I)
T1 construct: purchased Biolegend 552502
T1 sequence (P05089 1-322): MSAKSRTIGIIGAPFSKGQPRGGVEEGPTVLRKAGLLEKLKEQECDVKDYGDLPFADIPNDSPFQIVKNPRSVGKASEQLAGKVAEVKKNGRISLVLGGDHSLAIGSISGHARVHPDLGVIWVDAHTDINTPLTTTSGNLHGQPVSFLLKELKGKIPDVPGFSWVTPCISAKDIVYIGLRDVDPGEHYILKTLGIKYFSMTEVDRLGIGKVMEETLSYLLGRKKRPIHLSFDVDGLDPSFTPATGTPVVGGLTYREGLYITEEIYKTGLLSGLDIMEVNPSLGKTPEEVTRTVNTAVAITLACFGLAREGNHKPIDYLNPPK
Protocol: (§1) Human Arginase Activity Assay
The assay was run in the 96-well plate format, each reaction in the total volume of 100 uL. The assay is based on urea measurement, which is a product of L-arginine enzymatic degradation. […] The color product is developed by adding a mixture of reagent A (4 mM oPA in 50 mM boric acid in 1M sulfuric acid, 0.03% Brij-35) and reagent B (4 mM NED in 50 mM boric acid in 1M sulfuric acid, 0.03% Brij-35) in equal proportions. The absorbance for each well was measured at 530 nm.
(§2) For positive control, only the enzyme and substrate were used, the negative controls contained substrate solution with assay buffer. After incubating the microtiter plate at 37° C. for 60 min 150 μL of mixed reagents A and B was added to each well to stop the reaction. Absorbance was measured (λ=530 nm) 20 minutes later, after color development. The urea production in the absence of any compound was considered the maximum arginase activity. The absorbance in the absence of arginase (background) was subtracted from all the values. The normalized OD was used to generate a concentration-response curve by plotting the percent of inhibition against log[concentration] of the compound and using regression analysis (GraphPad Prism 7.0) to compute the IC50 values.

[2] = molecular target: T2, recombinant human arginase 2 (Homo sapiens, UniProt P78540); assay: Human arginase activity assay (urea measurement), arginase 2; type: biochemical; settings: for selected examples class estimated from % of inhibition at 1 μM and 100 μM, * = most potent diastereoisomer or mixture of diastereoisomers, read-out: Activity Class (ARG II)
T2 construct: made in house; host or cells: CHO
T2 sequence (P78540 23-354): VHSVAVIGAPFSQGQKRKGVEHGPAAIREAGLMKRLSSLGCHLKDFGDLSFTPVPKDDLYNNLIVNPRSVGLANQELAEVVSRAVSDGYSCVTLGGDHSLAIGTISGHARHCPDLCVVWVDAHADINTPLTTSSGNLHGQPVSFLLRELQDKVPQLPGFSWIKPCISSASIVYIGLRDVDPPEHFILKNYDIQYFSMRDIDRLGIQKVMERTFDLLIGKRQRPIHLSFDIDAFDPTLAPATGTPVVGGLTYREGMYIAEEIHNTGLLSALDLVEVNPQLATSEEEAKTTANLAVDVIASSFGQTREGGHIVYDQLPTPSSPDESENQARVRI
Protocol: as §1
An enzymatic assay with recombinant human arginases 1 (Biolegend, Cat. No. 552502) and 2 (homemade in eukaryotic expression system of CHO, purified by FPLC) was used in order to assess inhibitory activity of the compounds. The assay was run in the 96-well plate format, each reaction in the total volume of 100 uL. The assay is based on urea measurement, which is a product of L-arginine enzymatic degradation. (Baggio et al. J Pharmacol. Exp. Ther. 1999, 290, 1409-1416). The color product is developed by adding a mixture of reagent A (4 mM oPA in 50 mM boric acid in 1M sulfuric acid, 0.03% Brij-35) and reagent B (4 mM NED in 50 mM boric acid in 1M sulfuric acid, 0.03% Brij-35) in equal proportions. The absorbance for each well was measured at 530 nm.
as §2, with “Briefly, to each well of a 96-well microtiter plate 40 μL of enzyme in the reaction assay buffer (pH 7.4, 100 mM sodium phosphate buffer, 130 mM NaCl, 1 mg/mL albumin), 50 μL of the test compound solution and 10 μL of enzyme substrate solution (L-arginine hydrochloride, natural pH 5.6, final concentration 20 mM and a cofactor—manganese chloride, final concentration 150 μM) was added. For” for “For”
(§3) For selected examples the activity class for ARG2 was estimated based on % of inhibition for 1 μM and 100 μM concentration of tested compounds.

[3] = molecular target: T3, intracellular arginase in macrophages isolated from murine bone marrow (BMDM) (Mus musculus, UniProt Q61176); assay: Cell-based assay: intracellular arginase in bone marrow derived macrophages (BMDM), urea level; set-up: species or system Balb/c mice; settings: murine BMDM with M-CSF and IL-4, urea measured 24 hours after compound; * = most potent diastereoisomer or mixture of diastereoisomers; read-out: Activity Class (BMDM)
T3 construct: endogenous in cells; host or cells: primary bone marrow derived macrophages from Balb/c mice, M-CSF and IL-4 treated
T3 sequence (Q61176 1-323): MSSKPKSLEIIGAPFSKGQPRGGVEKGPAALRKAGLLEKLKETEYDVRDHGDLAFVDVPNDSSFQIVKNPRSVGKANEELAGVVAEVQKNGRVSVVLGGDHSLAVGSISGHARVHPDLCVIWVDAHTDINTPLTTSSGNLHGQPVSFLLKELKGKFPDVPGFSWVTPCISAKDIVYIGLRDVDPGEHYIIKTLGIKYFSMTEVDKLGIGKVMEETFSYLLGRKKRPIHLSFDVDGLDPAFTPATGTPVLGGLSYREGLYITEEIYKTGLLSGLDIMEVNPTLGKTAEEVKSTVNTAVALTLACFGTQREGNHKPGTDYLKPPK
Protocol: Efficacy of Selected Examples Towards Intracellular Arginase in Macrophages Isolated from Murine Bone Marrow—Bone Marrow Derived Macrophages (BMDM)
Materials & Methods: The assay was performed according to modified literature protocol modification (Pineda-Torra I et al., Methods Mol Biol. 2015; 1339:101-9. Mia S et al. Scand J Immunol. 2014 May; 79(5):305-14). The femurs and tibias were isolated from Balb/c mice. Bones were cleaned from all attached tissues by using sterile swab without affecting the bone structure. Bones were sterilized by immersion in 70% ethanol for 5 min and then rinsed in PBS. The sides of the bones were cut off and flush with cold sterile PBS by using 26-G needle S into a 50 mL sterile tube with a cell strainer (Falcon™, Cat. No. U00149), until bone cavity appeared white. Then the cells were centrifuged (5 min at 500×G, 4° C.), washed twice with PBS and counted. Cells were plated in Petri dish in density of 1×10^6/mL and cultured in DMEM (Gibco, Cat. No. 31331-029) with 10% FBS, 1% pen-strep and 50 ng/mL M-CSF (PeproTech, Cat. No. 315-02), (37° C., 5% CO2). After five days cells were subcultured into P96 plate (BD, Cat. No. 353072) in density of 64 000 cells/well in medium supplemented with 50 ng/mL M-CSF and 20 ng/mL IL-4 (Biomibo Cat. No. 214-1). One day later exemplary compounds (dissolved in PBS) were added in several different concentrations and 24 hours later the level of urea was measured in each well (Jung D et al., Clin Chem. 1975, 21(8):1136-40). The concentration of urea in the absence of any compound was considered as the maximum. The absorbance of cell culture media (background) was subtracted from all the values.
as §3

IC50 [1] | IC50 [2] | IC50 [3] | Structure (SMILES)
> 100 µM | > 100 µM |  | N[C@@]1(C(=O)O)C[C@H](CCB(O)O)CC[C@@H]1O (racemic) [Example 15, rac-(1S,2S,5R)-1-Amino-5-(2-boronoethyl)-2-hydroxycyclohexane-1-carboxylic acid hydrochloride]
> 100 µM | > 100 µM |  | N[C@]1(C(=O)O)C[C@H](CCB(O)O)[C@@H](O)C1 (racemic) [Example 5, rac-(1R,3S,4S)-1-Amino-3-(2-boronoethyl)-4-hydroxycyclopentane-1-carboxylic acid hydrochloride]
> 100 µM | > 100 µM |  | NC1(C(=O)O)CCCCC(CCB(O)O)C1 (centres unmarked) [Example 12, 1-Amino-3-(2-boronoethyl)cycloheptane-1-carboxylic acid hydrochloride]
0.001 to 0.1 µM |  | 0.1 to 1 µM | N[C@]1(C(=O)O)C[C@H](CCB(O)O)CC[C@H]1CN1C2CCC1CC2 (racemic) [Example 34, rac-(1R,2S,5R)-2-(7-azabicyclo[2.2.1]heptan-7-ylmethyl)-1-amino-5-(2-boronoethyl)cyclohexanecarboxylic acid dihydrochloride]
> 100 µM | > 100 µM |  | NC1(C(=O)O)CNC(CCB(O)O)C1 (centres unmarked) [Example 9, 3-Amino-5-(2-boronoethyl)pyrrolidine-3-carboxylic acid dihydrochloride]
0.1 to 1 µM | 0.001 to 0.1 µM |  | CN(C)CCC1CC[C@@H](CCB(O)O)CC1(N)C(=O)O (single isomer, unassigned) [Example 47, dihydrochloride]
0.1 to 1 µM | 1 to 10 µM |  | CN(Cc1ccccc1)CC1CCC(CCB(O)O)CC1(N)C(=O)O (centres unmarked) [Example 21, 1-Amino-2-((benzyl(methyl)amino)methyl)-5-(2-boronoethyl)cyclohexane-1-carboxylic acid dihydrochloride]
> 100 µM | 0.1 to 1 µM |  | N[C@]1(C(=O)O)C[C@H](CCB(O)O)CC[C@H]1CNCC(F)(F)F (racemic) [Example 36, rac-(1R,2S,5R)-1-amino-5-(2-boronoethyl)-2-(((2,2,2-trifluoroethyl)amino)methyl)cyclohexanecarboxylic acid dihydrochloride]
0.1 to 1 µM | 1 to 10 µM |  | CC1=CCC(CCB(O)O)CC1(N)C(=O)O (centres unmarked) [Example 51, 1-amino-5-(2-boronoethyl)-2-methylcyclohex-2-enecarboxylic acid hydrochloride]
1 to 10 µM | 1 to 10 µM |  | COc1ccc(N(C)C[C@@H]2CC[C@@H](CCB(O)O)C[C@]2(N)C(=O)O)cc1 (racemic) [Example 37, rac-(1R,2S,5R)-1-amino-5-(2-boronoethyl)-2-(((4-methoxyphenyl)(methyl)amino)methyl)cyclohexanecarboxylic acid dihydrochloride]
1 to 10 µM |  | 10 to 100 µM | N[C@@]1(C(=O)O)CNC[C@@H](CCB(O)O)C1 (racemic) [Example 57, rac-(3R,5S)-3-amino-5-(2-boronoethyl)piperidine-3-carboxylic acid dihydrochloride]
10 to 100 µM | 10 to 100 µM |  | NC1(C(=O)O)C[C@H](CCB(O)O)CC[C@@H]1O (mixture of isomers) [Example 16, rac-(2S,5R)-1-Amino-5-(2-boronoethyl)-2-hydroxycyclohexane-1-carboxylic acid hydrochloride]
1 to 10 µM | 1 to 10 µM |  | CN(C)C[C@@H]1CC[C@@H](CCB(O)O)C[C@@]1(N)C(=O)O (racemic) [Example 19, rac-(1S,2S,5R)-1-amino-5-(2-boronoethyl)-2-((dimethylamino)methyl)cyclohexane-1-carboxylic acid dihydrochloride]
1 to 10 µM | 1 to 10 µM |  | NC[C@H]1C[C@](N)(C(=O)O)C[C@@H]1CCB(O)O (racemic) [Example 6, rac-(1S,3S,4S)-1-Amino-3-(aminomethyl)-4-(2-boronoethyl)cyclopentane-1-carboxylic acid dihydrochloride]
10 to 100 µM | 10 to 100 µM |  | NC1(C(=O)O)CC(CCB(O)O)CCC1(O)Cc1ccc(Cl)cc1 (single isomer, unassigned) [Example 52, 1-amino-5-(2-boronoethyl)-2-(4-chlorobenzyl)-2-hydroxycyclohexanecarboxylic acid hydrochloride]
> 100 µM | > 100 µM |  | CC1(CCB(O)O)CCC(N)(C(=O)O)C1 (racemic) [Example 3, 1-amino-3-(2-boronoethyl)-3-methylcyclopentane-1-carboxylic acid]
